Article PMC8746798, “Evaluation of 2-Thioxoimadazolidin-4-one Derivatives as Potent Anti-Cancer Agents through Apoptosis Induction and Antioxidant Activation: In Vitro and In Vivo Approaches” (Molecules, 2021)
Entries after “also recorded” stand apart in the source; their conditions may differ. Blank lines part the entries; values can stand above or below the compound they belong to.

Key:
HepG2 liver cancer cells = experiment: MTT assay for cytotoxic screening, HepG2; type: cell-based, human; details: mean ± SE, n = 3
Procedure: The in vitro anti-cancer activity was assessed using the MTT assay. […] Staurosporine and 5-FU were used as reference drugs. HepG2 cells (1 × 10^4 cells/well, 96-well plate) were maintained in DMEM media supplemented with 2mML-glutamine (Lonza, Verviers, Belgium) and 10% FBS (Sigma, St. Louis, MO, USA), 1% Penicillin/Streptomycin (Lonza, Verviers, Belgium) according to the routine culture work. Cultures were incubated for 48 h with serial dilutions (0.01, 0.1, 1, 10, 100 µM) of the tested compounds. Finally, cell viability was determined by measuring the absorbance λ570 nm according to the following formula: % of cell viability = (A sapmple/A control) ×100, then IC50 calculation was calculated using GraphPad Prism 7 software.

[1] = system: THLE-2 normal liver cells; experiment: MTT assay, normal liver cells; type: cell-based; details: n = 3
[2] = system: Solid Ehrlich carcinoma (SEC); experiment: In vivo anti-tumor assay: tumor volume and tumor inhibition ratio; details: SEC-bearing mice, 6 mg/kg; SEC control 5802 mm^3
Procedure: We used adult Swiss albino female mice with average body weight 18–23 g obtained from Theodor Bilharzia Research Institute in Giza, Egypt. Mice were kept under constant conditions of a 12 h light–dark cycle at temperatures below controlled moisture conditions (22 ± 2 °C) with standard laboratory mouse nutrition and water entries. Approval for the experimental protocol was provided from the ethical committee of Suez Canal University for this experimental protocol (approval number REC-06-2020, Faculty of Science, Suez Canal University). Mice were adapted for approximately 10 days before use in the experiment.
Solid Ehrlich carcinoma (SEC) was obtained from the National Cancer Institute (University of Cairo, Egypt). The tumor cell line proliferated in mice after serial implantation of the peritoneal cavity (I.P.) in 0.2 mL of physiological saline containing 1 × 10^6 viable cells for 24 h. […]
We measured the length and width of the tumor using a digital Vernier clipper (Tricle Brand, Shanghai, China), then we calculate the tumor volume using the formula: V = (L × W × W)/2, where V is tumor volume, W is tumor width, and L is tumor length, and calculated the tumor inhibition ratio% using the formula: TIR %= (C − T)/C × 100, where T represents mean tumor volume of treated group and C represents mean tumor volume of the control group.

[3] = Hematological parameters (CBC) in mice; type: in vivo; details: SEC-bearing mice, 6 mg/Kg BW
Procedure: (§1) We randomly divided 50 mice into groups 5 groups (10 mice in each group): normal control (I) (mice injected intraperitoneally with the same volume of solvent for 14 consecutive days); group II, a group of normal mice treated with compound 4 (mice injected intraperitoneally with newly produced compound 4 at a dose of 6 mg/kg per day for 14 days); group III, solid tumor group (mice were implanted with solid tumor); group IV, group were treated with 5-FU (after 10 days of tumor implantation, mice were treated with 6 mg/kg only once); and group V, solid tumor group were treated with compound 4 (after 10 days of tumor implantation, mice were treated with 6 mg/kg only once). after one day of the previous treatment, 10 mice from each group were sacrificed and tumor weight, tumor volume (length and width of solid femoral tumor), blood and liver samples were obtained from each group. A portion of each blood sample taken was used for complete blood count (CBC) and the rest was centrifuged to obtain the serum. Serum was used for biochemical parameter estimation. The livers were rapidly dissected, washed with isotonic saline, and dried. The experiment design is summarized in Supplementary Figure S3.
(§2) Complete blood counts (CBCs) were counted using an AbbottCELLDYN®1800 Automated Hematology Analyzer (Abbott Park, IL, USA) equipped with an off-the-shelf kit (Abbott Laboratories, Abbott Park, IL, USA). For microscopic histopathological examination, tumor and kidney slices were maintained in 10% formalin, dehydrated with graduated alcohol, embedded in paraffin sections, H&E stained, and hematoxylin stained.

[4] = Serum biochemical parameters in mice; type: in vivo; details: SEC-bearing mice, 6 mg/Kg BW
Procedure: as §1
Evaluation of the activities of aspartate aminotransferase (AST) and alanine aminotransferase (ALT) using a commercial kit (ELITech Clinical Systems, France). The serum albumin level was measured using a kit obtained from STANBIO Company (USA). A commercial kit from the BioDiagnostic Company (Cairo, Egypt) was used to evaluate creatinine and urea levels.

[5] = Histopathological examination of liver and kidney (H&E); type: in vivo, mice; details: SEC-bearing mice treated
Procedure: as §1, §2
Specimens from mice liver cells were fixed in 10% formalin saline. Then, the samples were dehydrated with ascending series of ethanol and embedded in paraffin. A […] thick section was stained with hematoxylin and eosin and examined under a light microscope.

[6] = Homo sapiens, THLE-2, mean ± SE

Structure (SMILES): CC(C)C1(CN2CCCCC2)NC(=S)N(CN2CCCCC2)C1=O (stereo not drawn) [Compound 11, 5-Isopropyl-3,5-bis(piperidin-1-ylmethyl)-2-thioxoimidazolidin-4-one]
IC50 (HepG2 liver cancer cells; Homo sapiens, HepG2, 48 h): 1.14 ± 0.05 µM

RBC’s count ([3]; SEC control 7.52 ± 0.5): 7.5 ± 0.8 ×10^6/µL
Hemoglobin ([3]; SEC control 11.8 ± 0.8, mean ± SE n = 9): 10.6 ± 1.1 g/dL
WBC’s count ([3]; SEC control 16.5 ± 3.4): 13.1 ± 4.1 ×10^3/µL
Creatinine [4]: 0.8 ± 0.1 mg/dL
Albumin ([4]; SEC control 4.01 ± 0.4): 4.1 ± 0.3 g/dL
Total Protein ([4]; SEC control 6.6 ± 0.4): 7.2 ± 0.4 g/dL
Urea ([4]; SEC control 25.2 ± 2.3): 26.1 ± 2.7 mg/dL
Structure (SMILES): O=c1[nH]cc(F)c(=O)[nH]1 [Compound 5-FU, reference compound]
IC50 (HepG2 liver cancer cells; 48 h): 5.18 ± 0.53 µM
IC50 ([1]; mean ± SE): 43 ± 1.29 µM
tumor volume on the final day [2]: 4177 mm^3
AST ([4]; SEC control 48.9 ± 5.5): 38 ± 4.6 U/L
ALT ([4]; SEC control 50 ± 2.7): 39.1 ± 3.6 U/L
kidney histopathology [5]: moderate improvement; also recorded: few tubules show evidence of renal acute tubular injury ATI
liver histopathology [5]: Hydropic degeneration of hepatocytes, nuclear pyknosis, and karyolysis still occurred

Structure (SMILES): COc1ccc(/C=C2\C(=O)NC(=S)N2c2ccccc2)cc1 [Compound 1, (E)-5-(4-Methoxybenzylidene)-1-phenyl-2-thioxoimidazolidin-4-one]
IC50 (HepG2 liver cancer cells; Homo sapiens, HepG2, 48 h): 27.8 ± 0.94 µM

Structure (SMILES): CN[C@@H]1C[C@H]2O[C@@](C)([C@@H]1OC)n1c3ccccc3c3c4c(c5c6ccccc6n2c5c31)C(=O)NC4 [Staurosporine, reference compound]
IC50 (HepG2 liver cancer cells; Homo sapiens, HepG2, 48 h): 5.07 ± 0.22 µM

Structure (SMILES): O=C1/C(=C\c2cccs2)NC(=S)N1c1ccccc1 [Compound 7, (E)-3-Phenyl-5-(thiophen-2-ylmethylene)-2-thioxoimidazolidin-4-one]
IC50 (HepG2 liver cancer cells; Homo sapiens, HepG2, 48 h): 0.41 ± 0.009 µM
IC50 [1, 6]: 15.4 ± 0.74 µM

Structure (SMILES): CN1C(=S)N(CCN2CCOCC2)C(=O)/C1=C\c1ccc2c(c1)OCO2 [Compound 5, (E)-5-(3,4-Methylenedioxybenzylidene)-3-[2-(4-morpholino)ethyl]-1-methyl-2-thioxo-imidazolidin-4-one]
IC50 (HepG2 liver cancer cells; Homo sapiens, HepG2, 48 h): 1.94 ± 0.09 µM

Structure (SMILES): CN1C(=S)NC(=O)/C1=C\c1ccc(N(C)C)cc1 [Compound 3, (E)-5-(4-(Dimethylamino)benzylidene)-1-methyl-2-thioxoimidazolidin-4-one]
IC50 (HepG2 liver cancer cells; Homo sapiens, HepG2, 48 h): 8.93 ± 0.75 µM

Structure (SMILES): O=C1NC(=S)N(c2ccccc2)/C1=C/c1cc2ccccc2[nH]1 [Compound 2, (E)-5-((1H-Indol-2-yl)methylene)-1-phenyl-2-thioxoimidazolidin-4-one]
IC50 (HepG2 liver cancer cells; Homo sapiens, HepG2, 48 h): 0.18 ± 0.03 µM
IC50 [1, 6]: 16.9 ± 1.11 µM

Structure (SMILES): CC(C)C1NC(=S)N(CN2CCOCC2)C1=O (stereo not drawn) [Compound 10, 5-Isopropyl-3-(morpholinomethyl)-2-thioxoimidazolidin-4-one]
IC50 (HepG2 liver cancer cells; Homo sapiens, HepG2, 48 h): 64.8 ± 1.63 µM

Structure (SMILES): C=CCN1C(=O)/C(=C\c2ccc(C)cc2)NC1=S [Compound 6, (E)-3-Allyl-5-(4-methylbenzylidene)-2-thioxoimidazolidin-4-one]
IC50 (HepG2 liver cancer cells; Homo sapiens, HepG2, 48 h): 0.61 ± 0.08 µM
IC50 [1, 6]: 35.1 ± 1.33 µM

Structure (SMILES): CC(C)CC1(CN2CCOCC2)NC(=S)N(CN2CCOCC2)C1=O (stereo not drawn) [Compound 12, 5-Isobutyl-3,5-bis(morpholinomethyl)-2-thioxoimidazolidin-4-one]
IC50 (HepG2 liver cancer cells; Homo sapiens, HepG2, 48 h): 1.13 ± 0.066 µM
